Measured values published in patent US12590118B2, “Salt and crystal form of steroid derivative regulator” (Shanghai Hansoh Biomedical Co., Ltd., priority 2019, dated 2026).

Tests used:
GABA-A receptor = assay: 35S-TBPS binding assay (GABAA receptor binding ability assay); set-up: species or system Sprague-Dawley rat; conditions: rat cerebral cortex cell membrane, 5 μM GABA, 2 nM 35S-TBPS; read-out: IC50 on inhibiting the TBPS binding activity, 35S-TBPS bindng assay
In short: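 Male Sprague-Dawley rat cerebral cortex membranes in PBS, preincubated with compound (1% DMSO, 8-point 3-fold series) 5 min at 25° C, then GABA 5 μM final 5 min, then 2 nM 35S-TBPS for 20 h at 4° C. Bound radioactivity filtered on PEI-treated GF/C and counted. % inhibition relative to DMSO and 10 μM P026-2 controls; IC50 from 4-parameter fit.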

ICR mice = assay: Forced swimming model in mice; format: in vivo; conditions: for Mean (immobility, %): floating time/240 s; for Mean (immobility, s): latter four minutes of 6 min swim
Description: The antidepressant effect of the compound was evaluated by the forced swimming model in mice.
Compounds of Examples 1 to 3, Example 9, Example 40, Example 41, Examples 48 to 52, Example 90 and Example 98 of the present invention, prepared by the applicant.
Male ICR mice (25-35 g) were adapted in the experiment environment for 3 days before the forced swimming test.
According to the experiment design, the mice were randomly grouped on the day before the experiment according to body weight, with 12 mice in each group. Before the test, the compounds of each example were administered intragastrically according to the Tmax thereof in the brain in mice pharmacokinetic experiment.
Respectively: • 1) Model group (0.5% CMC-Na-1% Tween 80 solution, p.o., 10 mL/kg); • 2) Compounds of Examples 1 to 3, Example 40, Example 41, Examples 48 to 51, Example 90 and Example 98 (10 mg/kg, p.o., 10 mL/kg); Example 9 and Example 52 (5 mg/kg, p.o., 5 mL/kg).
When being administered, the compounds of each example were suspended in 0.5% CMC-Na+1% Tween 80 solution to the desired concentration.
0.5-1 hour after administration, ICR mice were placed in a forced swimming device (transparent glass drum (water depth 18 cm, water temperature 25-26° C.), one mouse per tank) and forced to swim for 6 minutes. The forced swimming device recorded the floating time of the ICR mice during the entire 6 minutes, and the data of the latter four minutes were used for data analysis. The mice were taken out immediately after the swimming experiment, wiped dry and put back in their original cages.
Note: The criterion for determining the immobility time is that the mouse stops struggling in water and floats, and there are only slight limb movements to keep the head floating on the water.
3.4 Data Analysis Floating time percentage=100*floating time/240 s.

[1] = molecular target: T1, human GABAA receptor α1, β2 and γ2 subunit (HEK293T cell line) (Homo sapiens, UniProt P14867+P47870); assay: Positive regulatory effect on GABAA receptor, manual patch clamp; format: cell-based; conditions: whole-cell current, 1 μM GABA
T1 construct: expressed in transfected cells
T1 sequence (P14867 28-456): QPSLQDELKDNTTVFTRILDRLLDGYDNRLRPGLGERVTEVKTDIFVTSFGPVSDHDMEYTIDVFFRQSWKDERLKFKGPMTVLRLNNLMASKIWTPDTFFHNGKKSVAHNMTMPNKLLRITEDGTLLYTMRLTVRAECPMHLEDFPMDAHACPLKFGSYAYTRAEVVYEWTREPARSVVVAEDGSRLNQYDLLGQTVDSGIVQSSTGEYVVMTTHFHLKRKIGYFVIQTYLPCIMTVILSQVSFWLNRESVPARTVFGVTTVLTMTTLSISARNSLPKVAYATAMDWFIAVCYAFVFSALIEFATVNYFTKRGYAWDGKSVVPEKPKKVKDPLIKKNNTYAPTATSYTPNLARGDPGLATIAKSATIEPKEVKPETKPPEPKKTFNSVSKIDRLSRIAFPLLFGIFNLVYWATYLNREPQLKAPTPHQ
T1 sequence (P47870 25-512 limits assumed): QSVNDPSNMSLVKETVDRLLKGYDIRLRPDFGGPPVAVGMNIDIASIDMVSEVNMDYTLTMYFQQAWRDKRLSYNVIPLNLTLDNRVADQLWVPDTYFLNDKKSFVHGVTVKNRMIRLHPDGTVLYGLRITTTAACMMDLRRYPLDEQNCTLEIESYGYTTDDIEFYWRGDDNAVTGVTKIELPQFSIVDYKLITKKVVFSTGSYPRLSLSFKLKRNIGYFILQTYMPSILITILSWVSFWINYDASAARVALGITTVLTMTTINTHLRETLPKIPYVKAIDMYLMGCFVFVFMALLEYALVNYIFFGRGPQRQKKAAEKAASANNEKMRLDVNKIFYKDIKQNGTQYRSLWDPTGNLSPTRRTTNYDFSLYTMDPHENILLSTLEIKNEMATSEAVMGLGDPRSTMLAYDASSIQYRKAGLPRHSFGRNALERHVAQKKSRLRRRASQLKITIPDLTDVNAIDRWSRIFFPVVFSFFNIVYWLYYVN
T1 sequence (P18507 40-475 partner): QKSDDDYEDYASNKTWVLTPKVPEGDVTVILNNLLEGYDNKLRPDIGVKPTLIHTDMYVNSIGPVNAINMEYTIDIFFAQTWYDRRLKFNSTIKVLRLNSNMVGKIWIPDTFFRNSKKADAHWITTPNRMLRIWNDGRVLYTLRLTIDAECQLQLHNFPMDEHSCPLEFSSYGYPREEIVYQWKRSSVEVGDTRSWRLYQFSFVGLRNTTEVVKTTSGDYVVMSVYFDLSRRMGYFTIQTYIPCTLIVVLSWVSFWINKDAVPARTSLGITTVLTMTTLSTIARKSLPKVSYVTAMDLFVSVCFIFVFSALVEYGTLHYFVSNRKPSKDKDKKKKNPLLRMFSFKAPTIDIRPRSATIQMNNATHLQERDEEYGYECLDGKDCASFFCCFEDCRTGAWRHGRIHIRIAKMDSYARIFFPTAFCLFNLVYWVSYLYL
Description: The objective of this test example is to determine the positive regulatory effect of the compound on GABAA receptor by the electrophysiological manual patch clamp method.
Manual patch clamp system HEKA EPC10 USB signal amplifier and digital conversion system (purchased from HEKA Electronics, Germany), centrifuge (Eppendorf, etc.), carbon dioxide incubator (purchased from Thermo, etc.), biological safety cabinet (Thermo, etc.), pipette (purchased from Eppendorf, etc.).
The cells were grown in a culture dish with DMEM medium (purchased from Invitrogen), and cultured in an incubator at 37° C. and 5% CO2. Before the electrophysiological experiment, the cells were transferred to a round glass slide placed in the culture dish, and grown in the same culture medium and under the same culture condition as above. The density of cells on each round glass slide should meet the requirement that most cells were independent and individual.
Each test compound was diluted in gradient with DMSO to obtain a stock solution, which was then diluted with extracellular fluid by 1,000-fold to obtain the final test concentration. The final concentration of DMSO in the compound solution with each concentration was 0.1%. The experiment used the manual patch clamp system HEKA EPC10 USB signal amplifier and digital conversion system for whole cell current recording. The round glass slide with HEK293T GABAA cells grown on the surface was taken out of the culture dish, and placed in the electrophysiological recording tank under the inverted microscope. The recording tank was continuously perfused with extracellular fluid. During the experiment, the whole-cell current recording technology was used to record the chloride current of the GABAA channel. 1 μM GABA was used to activate the chloride current of the GABAA channel of each cell as an initial control. 1 μM GABA acted on the cell through the drug perfusion system to induce the chloride current of the GABAA channel, the action time was about 3 to 5 seconds, and the current value was used as the initial control value. The test concentration of compound was perfused and incubated for 2 to 5 minutes. […] GABA solution (mixed with the test concentration of compound) was given to the cells to observe the enhancement effect of the test compound on the current induced by 1 μM GABA. When the cell state was stable, the test compound acted on the same cell from low to high concentration to record the enhancement effect of the induced current.
The experimental data was analyzed by HEKA Patchmaster, Microsoft Excel and the data analysis software provided by Graphpad Prism.

CD-1 mice = assay: PTZ-induced epilepsy model in mice; format: in vivo; conditions: 3 mpk p.o., PTZ 120 mg/kg s.c., 30 min observation
Description: The PTZ-induced epilepsy model in CD-1 mice was established, and the antiepileptic effect of the compounds of Example 2, Example 40, Example 41 and Example 52 was evaluated using this model.
50 male CD-1 mice were purchased from Beijing Vital River Laboratory Animal Technology Co. Ltd. The test animals were adapted at the animal room in the third building of Shanghai ChemPartner Co., Ltd for 7 days before the experiment. The average body weight of the animals on the test day was 32.2±0.2 grams. Feeding environment: 5 animals/cage, room temperature 23±2° C., 12/12 hours of light and dark cycle, free access to food and water.
The mice were randomly grouped for the experiment on the test day.
Compounds of Example 2, Example 40, Example 41 and Example 52 (prepared by the applicant). The test compounds were stored in a refrigerator at 4° C.
4.2.3 Test Equipments • 1 ml sterile disposable syringe with needle (purchased from Zhejiang Kangdelai Medical Devices Co., Ltd.) • Pipette: Eppendorf Research Plus (100-1000 μL) • Vortex mixer: Kylin-Bell Vortex 5 • Ultrasonic instrument: JL-360 ultrasonic cleaner • Balance: METTLER TOLEDO XS204 precision balance • Balance: METTLER TOLEDO XS6002S electronic balance • Plexiglass box: 25 cm length*15 cm width*15 cm height with one opaque side wall, custom made by Suzhou Fengshi Laboratory Animal Equipment Co., Ltd • 3-channel timer: Oregon/Model NO. WB-388. 4.2.4 Test Animal Grouping • 1) Vehicle/PTZ: 0.5% CMC-Na+1% Tween-80 (10 ml/kg, p.o.), administered 0.5 hr before the PTZ administration; PTZ ([…], s.c.), administered before the experiment; • 2) 3 mg/kg of the compounds of Examples/PTZ: the compounds of Example 2, Example 40, Example 41 and Example 52 (3 mg/kg, 10 ml/kg, p.o.), administered 0.5 hr before the PTZ administration; PTZ ([…], s.c.), administered before the experiment. 4.3 Experimental Procedures 4.3.1 Solvent Formulation • 1) 0.5% CMC-Na+1% Tween-80 (administration volume: 10 mL/kg):
1 g of sodium carboxymethyl cellulose was precisely weighed and added to a 250 mL solvent bottle, then 150 mL of double-distilled water was added. The mixture was stirred at room temperature for 4 hours with a magnetic stirrer to obtain a uniform and clear solution. 2 mL of Tween-80 was slowly added, and the mixture was stirred at room temperature for 3 hours to obtain a uniform and clear solution. The solution was slowly transferred to a 200 mL volumetric flask, and double distilled water was added to the constant volume of 200 mL. The solution was transferred to a 250 mL solvent bottle, and stirred for 1 hour with a magnetic stirrer to obtain a uniform and clear solution. • 2) 30% hydroxypropyl-p-cyclodextrin:
248 mg of PTZ was precisely weighed and added to a 40 mL brown flask, then 20.667 mL of physiological saline was added. The mixture was mixed by vortex for 2 minutes, and treated by ultrasound at room temperature for 2 minutes to obtain a uniform and clear solution (concentration: 12 mg/mL). • 2) 0.3 mg/mL of the compounds of Example 5 or Example 23 (dose: 3 mg/kg; administration volume: 10 mL/kg): […]
4.4 Adaptation to the Environment
The mice were randomly grouped, marked and weighed; 10 mice per group. The test compound was administered orally at an administration volume of 10 mL/kg 30-60 minutes before the PTZ administration.
PTZ (120 mg/kg) was administrated subcutaneously before the experiment observation, and this time point was recorded as the observation start point; after the administration of PTZ, the animal was immediately placed in the observation box and observed for 30 minutes, and the followings were recorded: a) the incubation period of the first clonic seizure, b) the incubation period of the first generalized tonic seizure, c) the number of clonic seizures, d) the number of generalized tonic seizures, e) the time when the animal died.
All measurement data were expressed as Mean±SEM, and analysed with Prism 6.0 statistical software.

| SMILES | IC50 (GABA-A receptor) | Mean (immobility, %) (ICR mice; dose 5 mpk p.o.) | Mean (immobility, s) (ICR mice; dose 5 mpk p.o.) | EC50 [1] | Mean (immobility, %) (ICR mice; dose 10 mpk p.o.) | Mean (immobility, s) (ICR mice; dose 10 mpk p.o.) | immobility time during the latter four minutes compared with that of the model group (ICR mice; forced swimming, ICR mice) | Incubation period of the clonic seizure (sec) Mean ± SEM (CD-1 mice) | Incubation period of the generalized tonic seizure (sec) Mean (CD-1 mice) | Mortality rate (%) (CD-1 mice) | Number of clonic seizures Mean (CD-1 mice) | Number of generalized tonic seizures Mean (CD-1 mice) | Time when the animal died (sec) Mean (CD-1 mice) |
| --- | --- | --- | --- | --- | --- | --- | --- | --- | --- | --- | --- | --- | --- |
| C[C@@H]1C[C@H](C(=O)Cn2cc(C#N)cn2)[C@@]2(C)CC[C@H]3[C@@H](CC[C@@H]4C[C@](C)(O)CC[C@@H]43)[C@H]12 [Example 9, 1-(2-((3R,5R,8R,9R,10S,13S,14S,15R)-3-Hydroxy-3,13,15-trimethylhexadecahydro-1H-cyclopenta[a]phenanthren-17-yl)-2-oxoethyl)-1H-pyrazole-4-carbonitrile] | 4.6 nM | 57.60% | 138.22 s | 60 nM | – | – | – | – | – | – | – | – | – |
| C[C@@H]1C[C@H](C(=O)Cn2nccn2)[C@@]2(C)CC[C@H]3[C@@H](CC[C@@H]4C[C@](C)(O)CC[C@@H]43)[C@H]12 [Example 41, 1-((3R,5R,8R,9R,10S,13S,14S,15R,17S)-3-Hydroxy-3,13,15-trimethylhexadecahydro-1H-cyclopenta[a]phenanthren-17-yl)-2-(2H-1,2,3-triazol-2-yl)ethan-1-one] | – | – | – | 130 nM | 35.75% | 85.8 s | very significantly different | 841.4 ± 179.8 s | 1497.4 ± 124.3 s | 40% | 1.9 ± 0.4 | 0.5 ± 0.2 | 1573.1 ± 117.9 s |
| Cc1nnn(CC(=O)[C@H]2C[C@@H](C3CC3)[C@H]3[C@@H]4CC[C@@H]5C[C@](C)(O)CC[C@@H]5[C@H]4CC[C@@]32C)n1 [Example 52, 1-((3R,5R,8R,9R,10S,13S,14S,15S,17S)-15-Cyclopropyl-3-hydroxy-3,13-dimethylhexadecahydro-1H-cyclopenta[a]phenanthren-17-yl)-2-(5-methyl-2H-tetrazol-2-yl)ethan-1-one] | – | 38.00% | 91.21 s | 150 nM | – | – | – | 635.4 ± 149.9 s | 1506.8 ± 149.8 s | 30% | 1.8 ± 0.3 | 0.3 ± 0.2 | 1618.1 ± 121.3 s |
| C[C@@]1(O)CC[C@H]2[C@H](CC[C@@H]3[C@@H]2CC[C@@]2(C)[C@H]3[C@H](C3CC3)C[C@@H]2C(=O)Cn2nc(C#N)cc2C#N)C1 [Example 96, 1-(2-((3R,5R,8R,9R,10S,13S,14S,15S,17S)-15-Cyclopropyl-3-hydroxy-3,13-dimethylhexadecahydro-1H-cyclopenta[a]phenanthren-17-yl)-2-oxoethyl)-1H-pyrazole-3,5-dicarbonitrile] | 28.5 nM | – | – | 84 nM | – | – | – | – | – | – | – | – | – |
